Experimental data from patent publication US20260070886A1, “QUINOLINE PIPERAZINE DERIVATIVES, PHARMACEUTICAL COMPOSITION AND USES THEREOF” (priority 2022, published 2026).
pIC50: −log10 of the molar value.

Legend:
A549 cells = experiment: Cell cytotoxicity assay, A549 cells; type: cell-based; conditions: Homo sapiens, 72 hours, percent cytotoxicity against DMSO control; for cytotoxicity at 1 µM: 1 μM compound, read-out: Cell toxicity A549 cells 1 μM; for cytotoxicity at 10 µM: 10 μM compound, read-out: Cell toxicity A549 cells 10 μM
Excerpt: (§1) The following human derived non-small cell lung cancer cell lines were used to test the efficiency of the compounds to cause cell death and assess the anti-cancer properties of said compounds: 1. A549 cells: adenocarcinomic human alveolar basal epithelial cells; these cells are used as models for the study of lung cancer and the development of drug therapies against it • 2. NCI-H-460 cells are also human lung cancer cells, and • 3. NCI-H-522 cells are also human lung cancer cells.
(§2) 500 cells/well/30 μL were seeded in a 384 well cell culture plate. Incubated over night at 37° C., 5% CO2 in cell culture incubator. 10 μL of 4× compound was added to the plates, and incubated for 72 hours at 37° C., 5% CO2 in cell culture incubator. Assay DMSO control were included for 0% cytotoxicity control. Assay was terminated by addition of 10 μL of the reagent CTG 2.0 detection reagent #G9242. Plates were incubated for 20 minute incubation at room temperature with shaking Plate were read in Envision. Ultrasensitive luminescence and data was analyzed and percent cytotoxicity of compounds was determined against DMSO control.
(§3) All the compounds, A1-A116, were tested for cell toxicity using said non-small cell lung cancer cell lines using the above described method.

NCI-H-460 cells = experiment: Cell cytotoxicity assay, NCI-H-460 cells; type: cell-based; conditions: Homo sapiens, NCI-H460, 72 hours, percent cytotoxicity against DMSO control; for cytotoxicity at 1 µM: 1 μM compound, read-out: Cell toxicity NCI-H-460 cells 1 μM; for cytotoxicity at 10 µM: 10 μM compound, read-out: Cell toxicity NCI-H-460 cells 10 μM
Excerpt: as §1, §2, §3

NCI-H-522 cells = experiment: Cell cytotoxicity assay, NCI-H-522 cells; type: cell-based; conditions: Homo sapiens, NCI-H522, 72 hours, percent cytotoxicity against DMSO control; for cytotoxicity at 1 µM: 1 μM compound, read-out: Cell toxicity NCI-H-522 cells 1 μM; for cytotoxicity at 10 µM: 10 μM compound, read-out: Cell toxicity NCI-H-522 cells 10 μM
Excerpt: as §1, §2, §3

A549 = experiment: CellTiter Glo assay, A549; type: cell-based; conditions: Homo sapiens, 72 hours, 10 point DRC, 100 μM top, read-out: Cytotoxicity IC50 A549
Excerpt: as §1
(§4) Cells were cultured and maintained in F12K+10% FBS+1× anti-anti media and RPMI+10% FBS+1× anti-anti media. Cells were trypsinised and expanded to ensure that cells are not over-confluent and are in log growth phase. On day 0, 500 cells/well were seeded in 30 μl media using cell culture treated white flat bottom 384 well plate, centrifuged at 40×g for 10 seconds and incubated overnight in […], 5% CO2 incubator. On day 1, 4× concentration of compounds were prepared in complete media, 10 μl was added to cells, centrifuged at 40×g for 10 seconds and incubated 72 hours in 37° C., 5% CO2 incubator. Compounds tested: 100 μM top, 3 fold dilution and 10 point DRC in triplicate. Final DMSO concentration was maintained at 0.5% for all compound. No compound/DMSO was used as a control. On day 4 (72 hours post treatment) plates were brought to room temperature for 10 min 10 μl of CellTiter Glo reagent was added to each well and placed the plates on an orbital shaker for 10 minutes at room temperature. Luminescence signal was read on the Envision plate reader using the ultra-sensitive luminescence protocol. Data was plotted and analyzed using the below formula: DMSO control treated cells RLU considered as 100% cell viability.
(§5) Table 7 provides the IC50 values for cell toxicity of most efficient derivatives of Formula A.

NCI-H-460 = experiment: CellTiter Glo assay, NCI-H-460; type: cell-based; conditions: Homo sapiens, NCI-H460; 72 hours, 10 point DRC, 100 μM top; read-out: Cytotoxicity IC50 NCI-H-460
Excerpt: as §1, §4, §5

NCI-H-522 = experiment: CellTiter Glo assay, NCI-H-522; type: cell-based; conditions: Homo sapiens, NCI-H522; 72 hours, 10 point DRC, 100 μM top; read-out: Cytotoxicity IC50 NCI-H-522
Excerpt: as §1, §4, §5

[1] = tested on: Non-small cell lung cancer cell lines; experiment: Cell toxicity assay, overall statement; type: cell-based; conditions: summary in words of Table 6
Excerpt: as §1, §2, §3
These selected derivatives of Formula A were further tested to confirm their efficiency as anti-cancer compounds.

[2] = tested on: Non-small cell lung cancer cell lines; experiment: Cell Titer Glo assay, overall statement; type: cell-based, human; conditions: summary in words
Excerpt: as §1, §4, §5

Compound	cytotoxicity at 1 µM (A549 cells) [%]	cytotoxicity at 10 µM (A549 cells) [%]	cytotoxicity at 1 µM (NCI-H-460 cells) [%]	cytotoxicity at 10 µM (NCI-H-460 cells) [%]	cytotoxicity at 1 µM (NCI-H-522 cells) [%]	cytotoxicity at 10 µM (NCI-H-522 cells) [%]	pIC50 (A549)	pIC50 (NCI-H-460)	pIC50 (NCI-H-522)	activity against Non-small cell lung cancer (cell toxicity) [1]	efficiency in cell toxicity against Non-small cell lung cancer cell lines [2]
COc1cc(Nc2nc(N3CCN(c4ccnc5cc(Cl)ccc45)CC3)cc(C(F)(F)F)n2)cc(OC)c1 [Compound A1, 4-(4-(7-chloroquinolin-4-yl)piperazin-1-yl)-N-(3,5-dimethoxyphenyl)-6-(trifluoromethyl)pyrimidin-2-amine]	42	97	19	82	21	50	5.80	5.62	5.52	active	best efficiency
COc1cncc(Nc2nc(N3CCN(c4ccnc5cc(Cl)ccc45)CC3)cc(C(F)(F)F)n2)c1 [Compound A7, 4-(4-(7-chloroquinolin-4-yl)piperazin-1-yl)-N-(5-methoxypyridin-3-yl)-6-(trifluoromethyl)pyrimidin-2-amine]	53	65	-1	25	18	42	5.38	5.47	5.59	active	best efficiency
Cc1cc(N2CCN(c3ccnc4cc(Cl)ccc34)CC2)nc(Nc2ccccc2)n1 [Compound A39, 4-(4-(7-chloroquinolin-4-yl)piperazin-1-yl)-6-methyl-N-phenylpyrimidin-2-amine]	4	18	-11	-4	1	15	–	–	–	active	–
FC(F)(F)c1cc(N2CCN(c3ccnc4cc(Cl)ccc34)CC2)nc(Nc2ccccc2)n1 [Compound A40, 4-(4-(7-chloroquinolin-4-yl)piperazin-1-yl)-N-phenyl-6-(trifluoromethyl)pyrimidin-2-amine]	15	8	-12	-7	6	11	–	–	–	active	–
COc1cc(Nc2nccc(N3CCN(c4ccnc5cc(Cl)ccc45)CC3)n2)cc(OC)c1 [Compound A41, 4-(4-(7-chloroquinolin-4-yl)piperazin-1-yl)-N-(3,5-dimethoxyphenyl)pyrimidin-2-amine]	23	42	2	28	7	56	–	–	–	active	–
COc1cc(Nc2nc(C)cc(N3CCN(c4ccnc5ccccc45)CC3)n2)cc(OC)c1 [Compound A42, N-(3,5-dimethoxyphenyl)-4-methyl-6-(4-(quinolin-4-yl)piperazin-1-yl)pyrimidin-2-amine]	68	98	4	67	20	80	6.00	5.63	5.38	active	best efficiency
COc1cc(Nc2nc(N3CCN(c4ccnc5ccccc45)CC3)cc(C(F)(F)F)n2)cc(OC)c1 [Compound A43, N-(3,5-dimethoxyphenyl)-4-(4-(quinolin-4-yl)piperazin-1-yl)-6-(trifluoromethyl)pyrimidin-2-amine]	88	99	8	65	48	73	6.18	6.03	5.91	active	best efficiency
COc1cc(Nc2nc(C)cc(N3CCN(c4ccnc5cc(C(F)(F)F)ccc45)CC3)n2)cc(OC)c1 [Compound A44, N-(3,5-dimethoxyphenyl)-4-methyl-6-(4-(7-(trifluoromethyl)quinolin-4-yl)piperazin-1-yl)pyrimidin-2-amine]	26	18	0	7	8	26	–	–	–	active	–
COc1cc(Nc2nc(N3CCN(c4ccnc5cc(C(F)(F)F)ccc45)CC3)cc(C(F)(F)F)n2)cc(OC)c1 [Compound A45, N-(3,5-dimethoxyphenyl)-4-(trifluoromethyl)-6-(4-(7-(trifluoromethyl)quinolin-4-yl)piperazin-1-yl)pyrimidin-2-amine]	8	83	0	12	7	55	–	–	–	active	–
COc1cc(Nc2nc(C)cc(N3CCN(c4ncnc5ccccc45)CC3)n2)cc(OC)c1 [Compound A46, N-(3,5-dimethoxyphenyl)-4-methyl-6-(4-(quinazolin-4-yl)piperazin-1-yl)pyrimidin-2-amine]	25	98	-2	44	2	66	–	–	–	active	–
COc1cc(Nc2nc(N3CCN(c4ncnc5ccccc45)CC3)cc(C(F)(F)F)n2)cc(OC)c1 [Compound A47, N-(3,5-dimethoxyphenyl)-4-(4-(quinazolin-4-yl)piperazin-1-yl)-6-(trifluoromethyl)pyrimidin-2-amine]	38	44	4	12	45	43	–	–	–	active	–
COc1cc(Nc2nc(C)cc(N3CCN(c4ccnc5cc(F)ccc45)CC3)n2)cc(OC)c1 [Compound A48, N-(3,5-dimethoxyphenyl)-4-(4-(7-fluoroquinolin-4-yl)piperazin-1-yl)-6-methylpyrimidin-2-amine]	57	98	0	66	16	71	6.09	5.74	5.49	active	best efficiency
